Measured values from patent US20250128062A1 (priority 2023, published 2025).
pKd: −log10 of the molar value. “Also recorded” adds a separate entry of the source.

What was measured:
[1] = in vivo; cited from earlier work
[2] = patients; cited from earlier work
[3] = tested on: afferent transmission in C-fiber and Aδ-fiber afferents (DRG); assay: ex vivo single-fiber recordings of afferent transmission block by DRG stimulation with local Na,K-ATPase inhibition (3-compartment tissue chamber)
From the text: FIG. 9A is a plot of ex vivo single-fiber recordings from afferent axons in a 3-compartment tissue chamber that isolates the DRG from the spinal nerve and dorsal root allowing focused pharmacological application.
Action potentials were evoked by stimulating the peripheral end of the spinal nerve, which is transmitted down the peripheral and central axons to be recorded by extracellular single-fiber recordings from split dorsal root filaments.

α1 unit of Na,K-ATPase = conditions: read-out: Kd to block the α1 unit of Na,K-ATPase; cited from earlier work

## C[C@H]1O[C@@H](O[C@H]2[C@@H](O)C[C@H](O[C@H]3[C@@H](O)C[C@H](O[C@H]4CC[C@@]5(C)[C@H](CC[C@@H]6[C@@H]5CC[C@]5(C)[C@@H](C7=CC(=O)OC7)CC[C@]65O)C4)O[C@@H]3C)O[C@@H]2C)C[C@H](O)[C@@H]1O [digitoxin]
[1]
  route of elimination from the body: eliminated via the liver

## C[C@H]1O[C@@H](O[C@H]2[C@@H](O)C[C@H](O[C@H]3[C@@H](O)C[C@H](O[C@H]4CC[C@@]5(C)[C@H](CC[C@@H]6[C@@H]5C[C@@H](O)[C@]5(C)[C@@H](C7=CC(=O)OC7)CC[C@]65O)C4)O[C@@H]3C)O[C@@H]2C)C[C@H](O)[C@@H]1O [digoxin]
[2]
  serum level considered safe with no apparent side effects: < 1.0 ng/mL

## C[C@@H]1O[C@@H](O[C@H]2C[C@@H](O)[C@]3(CO)[C@H]4[C@H](O)C[C@]5(C)[C@@H](C6=CC(=O)OC6)CC[C@]5(O)[C@@H]4CC[C@]3(O)C2)[C@H](O)[C@H](O)[C@H]1O [ouabain]
[3]; 10 Hz DRG stimulation combined with ouabain 10 μg/mL (17.1 μM), OBF for C-fibers ~50 Hz without drug
  transmission block of C-fiber afferent by 10 Hz DRG stimulation: effectively blocks afferent transmission; also recorded: transmission block is achieved; also recorded: selectively block C-fiber afferents
[3]; 10 Hz DRG stimulation combined with ouabain 17.1 μM
  transmission block of Aδ-fiber afferent by 10 Hz DRG stimulation: unblocked; also recorded: unaffected
[3]; ouabain 10 μg/mL or 17.1 μM applied locally to the DRG in the middle compartment
  transmission block by DRG stimulation as measured by the time to resume transmission following terminating the DRG stimulation: significantly prolonged
[3]; ouabain applied to the DRG
  separation of optimal blocking frequency (OBF) between C-fibers and thinly myelinated Aδ-fibers: greater separation
α1 unit of Na,K-ATPase
  pKd: 3.77 to 4.49
